Data from patent publication US20220324803A1 (Teon Therapeutics, Inc., priority 2019, published 2022).

Target: T1, human Prostanoid EP4 Receptor (EP4) (Homo sapiens, UniProt P35408)
T1 construct: expressed in transfected cells; host or cells: HEK293 (G418 selection); membranes prepared by differential centrifugation
Assay: Prostanoid EP4 binding assay (3H-prostaglandin E2 displacement, cell membranes)
Settings: HEK293 cell membranes with human EP4, 3H-prostaglandin E2, 24° C.
Experimental: HEK293 cells transfected with human Prostanoid EP4 Receptor (EP4) are maintained in DMEM supplemented with L-Glutamine, 10% FBS and 300 μg/ml G418. Cells are harvested and membranes prepared by differential centrifugation, following lysis of the cells in the presence of protease inhibitors, for use in the receptor binding assay. EP4 binding assay is performed in 50 mM HEPES pH7.4, 5 mM MgCl2, 1 mM CaCl2) and 0.2% BSA. Testing compounds are diluted with DMSO to make 8-point 4-fold serial dilution. Cell membrane homogenates are incubated at 24° C. with ^3H-prostaglandin E2 in the absence or presence of the testing compound in assay buffer. Nonspecific binding (Low control: LC) and total binding (High control: HC) are determined in the presence or absence of saturated cold ligand Prostaglandin E2 (PGE2). Specific binding is calculated by subtracting nonspecific binding from total binding. When binding assays are completed, the reaction mixture is filtered rapidly under vacuum through glass fiber filters (GF/C, Packard) presoaked with 0.5% BSA for at least 0.5 hour at room temperature and then washed for 4 times with cold wash buffer (50 mM HEPES pH7.4, 500 mM NaCl, 0.1% BSA) using a 96-sample Perkin Elmer Filtermate Harvester (Unifilter, Packard). The filters are dried for 1 hour at 50 degrees then counted for radioactivity in a scintillation counter using Perkin Elmer Microscint 20 cocktail. ^3H trapped on filter is counted using Perkin Elmer MicroBeta2 Reader. Inhibition is calculated using following equation: % Inhibition=(1−(Assay well−Average_LC)/(Average_HC−Average_LC))×100%. The results are expressed as a percent inhibition of the control radioligand specific binding. Data are analyzed and IC50 is calculated using GraphPad Prism 5 and the model “log(inhibitor) vs. response—Variable slope”. The binding affinity of the compounds is determined by using the Cheng and Prusoff equation Ki=IC50/(1+[radioligand]/Kd).

T1 sequence (P35408 whole entry): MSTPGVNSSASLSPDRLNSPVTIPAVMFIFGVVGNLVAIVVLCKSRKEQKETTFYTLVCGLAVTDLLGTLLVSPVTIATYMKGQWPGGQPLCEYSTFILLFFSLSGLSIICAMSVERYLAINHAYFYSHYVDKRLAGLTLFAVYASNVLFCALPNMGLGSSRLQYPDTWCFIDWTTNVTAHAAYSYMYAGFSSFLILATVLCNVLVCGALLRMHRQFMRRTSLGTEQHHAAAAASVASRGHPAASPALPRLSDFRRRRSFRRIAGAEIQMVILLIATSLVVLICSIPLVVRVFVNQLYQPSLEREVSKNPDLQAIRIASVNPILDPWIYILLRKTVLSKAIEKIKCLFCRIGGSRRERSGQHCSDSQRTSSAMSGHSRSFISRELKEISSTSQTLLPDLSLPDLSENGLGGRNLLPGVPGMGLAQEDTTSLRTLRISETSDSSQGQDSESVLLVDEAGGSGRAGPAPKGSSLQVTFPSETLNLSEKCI

Question: `O=C(O)CC12CC(NC(=O)c3cnn4cccc(Cc5cccc(C(F)(F)F)c5)c34)(C1)C2` [Compound 16, 2-[3-[[4-[[3-(trifluoromethyl)phenyl]methyl]pyrazolo[1,5-a]pyridine-3-carbonyl]amino]-1-bicyclo[1.1.1]pentanyl]acetic acid] was tested. Which Ki did it give?
Answer: > 500 nM

Question: `O=C(O)CC12CC(NC(=O)c3cn(CCF)c4nccc(Cc5ccc(C(F)(F)F)cc5)c34)(C1)C2` [Compound 54, 2-[3-[[1-(2-fluoroethyl)-4-[[4-(trifluoromethyl)phenyl]methyl]-pyrrolo[2,3-b]pyridine-3-carbonyl]amino]-1-bicyclo[1.1.1]pentanyl]acetic acid] was tested. Which Ki did it give?
Answer: < 100 nM

Question: `CC(C)Cn1nc(C(=O)NC23CC(CC(=O)O)(C2)C3)c2c(Cc3ccc(C(F)(F)F)cc3)cccc21` [Compound 25, 2-[3-[[1-isobutyl-4-[[4-(trifluoromethyl)phenyl]methyl]indazole-3-carbonyl]amino]-1-bicyclo[1.1.1]pentanyl]acetic acid] was tested. Which Ki did it give?
Answer: < 100 nM

Question: With `O=C(O)CC12CC(NC(=O)c3cn(CCF)c4cccc(Cc5ccc(C(F)(F)F)cc5)c34)(C1)C2` [Compound 52, 2-[3-[[1-(2-fluoroethyl)-4-[[4-(trifluoromethyl)phenyl]methyl]-indole-3-carbonyl]amino]-1-bicyclo[1.1.1.1]pentanyl]acetic acid] as the compound, how does the Ki read?
Answer: < 100 nM

Question: Which Ki does the source give for `CC(C)n1nc(C(=O)N[C@H]2CC3(C2)C[C@H](C(=O)O)C3)c2c(Cc3ccc(C(F)(F)F)cc3)cccc21` (stereo partly drawn) [Compound 21, trans-2-[[1-isopropyl-4-[[4-(trifluoromethyl)phenyl]methyl]indazole-3-carbonyl]amino]spiro[3.3]heptane-6-carboxylic acid] here?
Answer: < 100 nM

Question: Which Ki does the source give for `CC(C)n1nc2cccc(Cc3ccc(C(F)(F)F)cc3)c2c1C(=O)N[C@@H](C)c1ccc(C(=O)O)cc1` [Compound 29, 4-[(1S)-1-[[2-isopropyl-4-[[4-(trifluoromethyl)phenyl]methyl]indazole-3-carbonyl]amino]ethyl]benzoic acid] here?
Answer: < 100 nM

Question: Which Ki does the source give for `O=C(NC1CC2(C1)CC(C(=O)O)C2)c1cnn2cccc(Cc3cc4ccccc4cn3)c12` (single isomer, unassigned) [Compound 13B, trans-2-[[4-(3-isoquinolylmethyl)pyrazolo[1,5-a]pyridine-3-carbonyl]amino]spiro[3.3]heptane-6-carboxylic acid] here?
Answer: < 100 nM

Question: For `CCn1cc(C(=O)NC23CC(CC(=O)O)(C2)C3)c2c(Cc3ccc(C(F)(F)F)cc3)cccc21` [Compound 51, 2-[3-[[1-ethyl-4-[[4-(trifluoromethyl)phenyl]methyl]indole-3-carbonyl]amino]-1-bicyclo[1.1.1]pentanyl]acetic acid], which Ki is on record?
Answer: < 100 nM

Question: With `CCn1cc(C(=O)N[C@H]2CC3(C2)C[C@H](C(=O)O)C3)c2c(Cc3ccc(C(F)(F)F)cc3)cccc21` (stereo partly drawn) [Compound 41, trans-2-[[1-ethyl-4-[[4-(trifluoromethyl)phenyl]methyl]indole-3-carbonyl]amino]spiro[3.3]heptane-6-carboxylic acid] as the compound, how does the Ki read?
Answer: < 100 nM

Question: Which Ki does the source give for `CCn1cc(C(=O)N[C@@H](C)c2ccc(C(=O)O)cc2)c2c(Cc3ccc(C(F)(F)F)cc3)ccnc21` [Compound 46, 4-[(1S)-1-[[1-ethyl-4-[[4-(trifluoromethyl)phenyl]methyl]-pyrrolo[2,3-b]pyridine-3-carbonyl]amino]ethyl]benzoic acid] here?
Answer: < 100 nM

Question: For `O=C(NC1CC2(C1)CC(C(=O)O)C2)c1cnn2cccc(Cc3cc4ccccc4cn3)c12` (single isomer, unassigned) [Compound 13A, cis-2-[[4-(3-isoquinolylmethyl)pyrazolo[1,5-a]pyridine-3-carbonyl]amino]spiro[3.3]heptane-6-carboxylic acid], which Ki is on record?
Answer: > 500 nM

Question: `CC(C(=O)O)c1ccc(NC(=O)c2cnn3cccc(Cc4ccc(C(F)(F)F)cc4)c23)cc1` (centres unmarked) [Compound 49, 2-[4-[[4-[[4-(trifluoromethyl)phenyl]methyl]pyrazolo[1,5-a]pyridine-3-carbonyl]amino]phenyl]propanoic acid] was tested. Which Ki did it give?
Answer: 100 to 499 nM

Question: For `O=C(N[C@H]1CC[C@H](C(=O)O)CC1)c1cnn2cccc(Cc3ccc(C(F)(F)F)cc3)c12` [Compound 33, (1r,4r)-4-[[4-[[4-(trifluoromethyl)phenyl]methyl]pyrazolo[1,5-a]pyridine-3-carbonyl]amino]cyclohexanecarboxylic acid], which Ki is on record?
Answer: 100 to 499 nM

Question: Which Ki does the source give for `O=C(N[C@H]1CC[C@@H](C(=O)O)CC1)c1cnn2cccc(Cc3ccc(C(F)(F)F)cc3)c12` [Compound 32, (1s,4s)-4-[[4-[[4-(trifluoromethyl)phenyl]methyl]pyrazolo[1,5-a]pyridine-3-carbonyl]amino]cyclohexanecarboxylic acid] here?
Answer: > 500 nM

Question: For `CC(C)n1nc(C(=O)NC23CC(CC(=O)O)(C2)C3)c2c(Cc3ccc(C(F)(F)F)cc3)cccc21` [Compound 22, 2-[3-[[1-isopropyl-4-[[4-(trifluoromethyl)phenyl]methyl]indazole-3-carbonyl]amino]-1-bicyclo[1.1.1]pentanyl]acetic acid], which Ki is on record?
Answer: > 500 nM

Question: `O=C(O)CC1CCC(NC(=O)c2cnn3cccc(Cc4ccc(C(F)(F)F)cc4)c23)C1` (centres unmarked) [Compound 37, 2-[3-[[4-[[4-(trifluoromethyl)phenyl]methyl]pyrazolo[1,5-a]pyridine-3-carbonyl]amino]cyclopentyl]acetic acid] was tested. Which Ki did it give?
Answer: < 100 nM

Question: For `O=C(O)CC12CC(NC(=O)c3n[nH]c4cccc(Cc5ccc(C(F)(F)F)cc5)c34)(C1)C2` [Compound 18, 2-(3-(4-(4-(trifluoromethyl)benzyl)-1H-indazole-3-carboxamido)bicyclo[1.1.1]pentan-1-yl)acetic acid], which Ki is on record?
Answer: 100 to 499 nM

Question: For `O=C(NC12CCC(C(=O)O)(CC1)CC2)c1cnn2cccc(Cc3ccc(C(F)(F)F)cc3)c12` [Compound 36, 4-[[4-[[4-(trifluoromethyl)phenyl]methyl]pyrazolo[1,5-a]pyridine-3-carbonyl]amino]bicyclo[2.2.2]octane-1-carboxylic acid], which Ki is on record?
Answer: 100 to 499 nM

Question: How did the Ki turn out when `CC(C)Cn1nc(C(=O)N[C@H]2CC3(C2)C[C@H](C(=O)O)C3)c2c(Cc3ccc(C(F)(F)F)cc3)cccc21` (stereo partly drawn) [Compound 24, trans-2-[[1-isobutyl-4-[[4-(trifluoromethyl)phenyl]methyl]indazole-3-carbonyl]amino]spiro[3.3]heptane-6-carboxylic acid] was run?
Answer: < 100 nM

Question: `O=C(O)CC1CCC(NC(=O)c2cnn3cccc(Cc4ccc(C(F)(F)F)cc4)c23)CC1` (centres unmarked) [Compound 34, 2-[4-[[4-[[4-(trifluoromethyl)phenyl]methyl]pyrazolo[1,5-a]pyridine-3-carbonyl]amino]cyclohexyl]acetic acid] was tested. Which Ki did it give?
Answer: < 100 nM

Question: `CC(C)n1nc(C(=O)N[C@@H](C)c2ccc(C(=O)O)cc2)c2c(Cc3ccc(C(F)(F)F)cc3)cccc21` [Compound 20, 4-[(1S)-1-[[1-isopropyl-4-[[4-(trifluoromethyl)phenyl]methyl]indazole-3-carbonyl]amino]ethyl]benzoic acid] was tested. Which Ki did it give?
Answer: < 100 nM

Question: Which Ki does the source give for `CC(C)Cn1nc2cccc(Cc3ccc(C(F)(F)F)cc3)c2c1C(=O)N[C@@H](C)c1ccc(C(=O)O)cc1` [Compound 30, 4-[(1S)-1-[[2-isobutyl-4-[[4-(trifluoromethyl)phenyl]methyl]indazole-3-carbonyl]amino]ethyl]benzoic acid] here?
Answer: 100 to 499 nM

Question: For `O=C(N[C@H]1CC[C@@H](C(=O)O)C1)c1cnn2cccc(Cc3ccc(C(F)(F)F)cc3)c12` [Compound 39, (1R,3S)-3-[[4-[[4-(trifluoromethyl)phenyl]methyl]pyrazolo[1,5-a]pyridine-3-carbonyl]amino]cyclopentanecarboxylic acid], which Ki is on record?
Answer: < 100 nM

Target: T1, human Prostanoid EP4 Receptor (EP4)
Assay: Prostanoid EP4 FLIPR assay (calcium flux, PGE2 addition)
Type: cell-based
Settings: HEK293 cells transfected with human EP4, Fluo-4 calcium dye
Experimental: HEK293 cells transfected with human Prostanoid EP4 Receptor (EP4) or CHO cells transfected with human Prostanoid EP2 Receptor (EP2) are maintained in DMEM supplemented with L-Glutamine, 10% FBS and 300 μg/ml G418. Cells are plated at 20,000 cells/well in black 384-well Poly-D-Lysine protein coating plate and incubated at 37° C., 5% CO2 for 24 h. Prior to the assay, calcium-sensitive dye Fluo-4 Direct™ (Molecular Devices) is reconstituted according to manufacturer instructions. The reconstituted dye was diluted in assay buffer (1× HBSS, 20 mM HEPES, and 2.5 mM Probenicid, pH 7.4). Growth media is removed and 20 μl of this diluted dye is added to each well at a final concentration of 2 μM. Plates are incubated for 50 min at 37° C. 5% C02 and 10 min at RT after dye addition. Testing compounds are diluted with DMSO to make 10-point 4-fold serial dilution. After the pre-treatment incubation, fluorescence intensity is measured on a FlexStation II fluorometric imaging plate reader (Molecular Devices). Relative fluorescence units (RFU) are measured before (20 readings) and after (40 readings) the PGE2 addition for a total 60 sec read time (Excitation=485 nm, Emission=525 nm). Data are analyzed and IC50 is calculated using GraphPad Prism 5 and the model “log(inhibitor) vs. response—Variable slope”.
Illustrative data for representative compounds are described in Table 2.

Question: Which IC50 does the source give for `O=C(O)CC12CC(NC(=O)c3cnn4cccc(Cc5cccc(C(F)(F)F)c5)c34)(C1)C2` [Compound 16, 2-[3-[[4-[[3-(trifluoromethyl)phenyl]methyl]pyrazolo[1,5-a]pyridine-3-carbonyl]amino]-1-bicyclo[1.1.1]pentanyl]acetic acid] here?
Answer: 100 to 499 nM

Question: With `O=C(NC1CC2(C1)CC(C(=O)O)C2)c1cnn2cccc(Cc3cc4ccccc4cn3)c12` (single isomer, unassigned) [Compound 13A, cis-2-[[4-(3-isoquinolylmethyl)pyrazolo[1,5-a]pyridine-3-carbonyl]amino]spiro[3.3]heptane-6-carboxylic acid] as the compound, how does the IC50 read?
Answer: 100 to 499 nM

Question: With `O=C(O)CC12CC(NC(=O)c3n[nH]c4cccc(Cc5ccc(C(F)(F)F)cc5)c34)(C1)C2` [Compound 18, 2-(3-(4-(4-(trifluoromethyl)benzyl)-1H-indazole-3-carboxamido)bicyclo[1.1.1]pentan-1-yl)acetic acid] as the compound, how does the IC50 read?
Answer: < 100 nM
